# US20020137929A1, “1 - (3-heterocyclylphenyl) isothiourea, -isourea, -guanidine and -amidine herbicidal agents” (Intellectual Property Department, BASF Aktiengesellschaft, priority 1998, published 2002)
# How the values were obtained:
# ABUTH (Velvetleaf) [1] = assay: Postemergence herbicidal evaluation; format: in vivo, Abutilon theophrasti; conditions: postemergence
# How it was run: (§1)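 ~2-wk seedlings; postemergence spray, 40 psi; vehicle 1:1 acetone:water + 0.5% Tween 20; rate ≈0.0156–0.500 kg/ha; greenhouse hold; scored 4–5 wk after treatment, 0–9 scale vs control; repeat tests averaged.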
# AMBEL (Ragweed, Common) = assay: Postemergence herbicidal evaluation; format: in vivo, Ambrosia artemisifolia; conditions: postemergence
# How it was run: as §1
# ECHCG (Barnyardgrass) = assay: Postemergence herbicidal evaluation; format: in vivo, Echinochloa crus-galli; conditions: postemergence
# How it was run: as §1
# SETVI (Foxtail, Green) [2] = assay: Postemergence herbicidal evaluation; format: in vivo, Setaria viridis; conditions: postemergence
# How it was run: as §1
# [3] = test system: GLXMAW (Soybean, Williams); assay: Postemergence herbicidal evaluation; format: in vivo, Glycine max, (L.) Merr. cv Williams; conditions: postemergence
# How it was run: as §1
# ORYSAT (Rice, Tebonnet) = assay: Postemergence herbicidal evaluation; format: in vivo, Oryza sativa, (L.) Tebonnet; conditions: postemergence
# How it was run: as §1
# [4] = test system: TRZAWR (Wheat, Winter, cv Riband); assay: Postemergence herbicidal evaluation; format: in vivo, Triticum aestivum; conditions: postemergence
# How it was run: as §1
# ABUTH (Velvetleaf) [5] = assay: Preemergence herbicidal evaluation; format: in vivo, Abutilon theophrasti; conditions: rated 4-5 weeks after treatment
# How it was run: (§2)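 Seeds were mixed with potting soil and planted on about one inch of soil, then sprayed with test compound in aqueous acetone at about 0.0156 to 0.500 kg per hectare. Plants grew under standard greenhouse care and were visually rated 0-9 against untreated controls 4-5 weeks post-treatment.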
# CASOB (Sicklepod) = assay: Preemergence herbicidal evaluation; format: in vivo, Cassia obtusifolia; conditions: rated 4-5 weeks after treatment
# How it was run: as §2
# SETVI (Foxtail, Green) [6] = assay: Preemergence herbicidal evaluation; format: in vivo, Setaria viridis; conditions: rated 4-5 weeks after treatment
# How it was run: as §2
# MOOVA (Monochoria) = assay: Preemergence weed control under flooded paddy conditions; format: in vivo, Monochoria vaginalis; conditions: rated 3-4 weeks after treatment
# How it was run: (§3)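 Ratings on a 0-9 visual scale cover stand, vigor, malformation, size, chlorosis and overall appearance relative to a control, taken three to four weeks post-treatment. Application was into flood water over freshly sown silt loam at roughly 0.0313 to 0.500 kg/ha.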
# [7] = test system: SAGPY (Arrowhead (Pygmaea)); assay: as above; format: in vivo, Sagittaria pygmaea; conditions: rated 3-4 weeks after treatment
# How it was run: as §3
# CYPIR (Rice Flatsedge) = assay: Postemergence weed control under flooded paddy conditions; format: in vivo, Cyperus iria; conditions: postemergence weeds, 3-4 weeks after treatment
# How it was run: (§4)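 With weeds 3 to 5 cm tall and rice at the 1.5 to 2.5 leaf stage, containers were flooded and water held 1.5 to 3 cm above soil. Compounds in 50/50 v/v aqueous/acetone went into the flood water at about 0.0313 to 0.500 kg/ha a.i. Effects were visually rated 0–9 against controls after three to four weeks in the greenhouse.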
# [8] = test system: SAGPY (Arrowhead (Pygmaea)); assay: as above; format: in vivo, Sagittaria pygmaea; conditions: postemergence weeds, 3-4 weeks after treatment
# How it was run: as §4
compound,measurement,setting,value
CCC1SC(=Nc2cc(-n3c(=O)cc(C(F)(F)F)n(C)c3=O)c(F)cc2Cl)N(C)C1=O (centres unmarked) [Compound 10],ABUTH herbicidal rating,ABUTH (Velvetleaf) [1]; rate 0.0156 kg/ha,9.0
same,ABUTH herbicidal rating,ABUTH (Velvetleaf) [1]; rate 0.0313 kg/ha,6.5
same,ABUTH herbicidal rating,ABUTH (Velvetleaf) [1]; rate 0.0625 kg/ha,7.0
same,ABUTH herbicidal rating,ABUTH (Velvetleaf) [1]; rate 0.1250 kg/ha,9.0
same,AMBEL herbicidal rating,"AMBEL (Ragweed, Common); rate 0.0156 kg/ha",0.5
same,AMBEL herbicidal rating,"AMBEL (Ragweed, Common); rate 0.0313 kg/ha",1.0
same,AMBEL herbicidal rating,"AMBEL (Ragweed, Common); rate 0.0625 kg/ha",2.0
same,AMBEL herbicidal rating,"AMBEL (Ragweed, Common); rate 0.1250 kg/ha",4.5
same,ECHCG herbicidal rating,ECHCG (Barnyardgrass); rate 0.0156 kg/ha,0.0
same,ECHCG herbicidal rating,ECHCG (Barnyardgrass); rate 0.0313 kg/ha,0.0
same,ECHCG herbicidal rating,ECHCG (Barnyardgrass); rate 0.0625 kg/ha,0.0
same,ECHCG herbicidal rating,ECHCG (Barnyardgrass); rate 0.1250 kg/ha,1.0
same,SETVI herbicidal rating,"SETVI (Foxtail, Green) [2]; rate 0.0156 kg/ha",0.0
same,SETVI herbicidal rating,"SETVI (Foxtail, Green) [2]; rate 0.0313 kg/ha",0.0
same,SETVI herbicidal rating,"SETVI (Foxtail, Green) [2]; rate 0.0625 kg/ha",1.0
same,SETVI herbicidal rating,"SETVI (Foxtail, Green) [2]; rate 0.1250 kg/ha",3.0
same,GLXMAW herbicidal rating,[3]; rate 0.0156 kg/ha,4.0
same,GLXMAW herbicidal rating,[3]; rate 0.0313 kg/ha,4.5
same,GLXMAW herbicidal rating,[3]; rate 0.0625 kg/ha,5.3
same,GLXMAW herbicidal rating,[3]; rate 0.1250 kg/ha,5.8
same,ORYSAT herbicidal rating,"ORYSAT (Rice, Tebonnet); rate 0.0156 kg/ha",1.8
same,ORYSAT herbicidal rating,"ORYSAT (Rice, Tebonnet); rate 0.0313 kg/ha",2.5
same,ORYSAT herbicidal rating,"ORYSAT (Rice, Tebonnet); rate 0.0625 kg/ha",2.5
same,ORYSAT herbicidal rating,"ORYSAT (Rice, Tebonnet); rate 0.1250 kg/ha",3.0
same,TRZAWR herbicidal rating,[4]; rate 0.0156 kg/ha,2.5
same,TRZAWR herbicidal rating,[4]; rate 0.0313 kg/ha,3.3
same,TRZAWR herbicidal rating,[4]; rate 0.0625 kg/ha,3.3
same,TRZAWR herbicidal rating,[4]; rate 0.1250 kg/ha,3.5
same,ABUTH preemergence herbicidal rating,ABUTH (Velvetleaf) [5]; rate 0.0156 kg/ha,5.5
same,ABUTH preemergence herbicidal rating,ABUTH (Velvetleaf) [5]; rate 0.0313 kg/ha,8.0
same,ABUTH preemergence herbicidal rating,ABUTH (Velvetleaf) [5]; rate 0.0625 kg/ha,9.0
same,ABUTH preemergence herbicidal rating,ABUTH (Velvetleaf) [5]; rate 0.1250 kg/ha,9.0
same,ABUTH preemergence herbicidal rating,ABUTH (Velvetleaf) [5]; rate 0.2500 kg/ha,9.0
same,CASOB preemergence herbicidal rating,CASOB (Sicklepod); rate 0.0156 kg/ha,0.0
same,CASOB preemergence herbicidal rating,CASOB (Sicklepod); rate 0.0313 kg/ha,0.7
same,CASOB preemergence herbicidal rating,CASOB (Sicklepod); rate 0.0625 kg/ha,0.7
same,CASOB preemergence herbicidal rating,CASOB (Sicklepod); rate 0.1250 kg/ha,1.3
same,CASOB preemergence herbicidal rating,CASOB (Sicklepod); rate 0.2500 kg/ha,3.3
same,SETVI preemergence herbicidal rating,"SETVI (Foxtail, Green) [6]; rate 0.0156 kg/ha",2.3
same,SETVI preemergence herbicidal rating,"SETVI (Foxtail, Green) [6]; rate 0.0313 kg/ha",5.7
same,SETVI preemergence herbicidal rating,"SETVI (Foxtail, Green) [6]; rate 0.0625 kg/ha",9.0
same,SETVI preemergence herbicidal rating,"SETVI (Foxtail, Green) [6]; rate 0.1250 kg/ha",9.0
same,SETVI preemergence herbicidal rating,"SETVI (Foxtail, Green) [6]; rate 0.2500 kg/ha",9.0
same,Herbicidal rating MOOVA,MOOVA (Monochoria); 0.0313 kg/ha,9.0
same,Herbicidal rating MOOVA,MOOVA (Monochoria); 0.0625 kg/ha,9.0
same,Herbicidal rating MOOVA,MOOVA (Monochoria); 0.1250 kg/ha,9.0
same,Herbicidal rating MOOVA,MOOVA (Monochoria); 0.2500 kg/ha,9.0
same,Herbicidal rating SAGPY,[7]; 0.0313 kg/ha,0.0
same,Herbicidal rating SAGPY,[7]; 0.0625 kg/ha,0.0
same,Herbicidal rating SAGPY,[7]; 0.1250 kg/ha,0.0
same,Herbicidal rating SAGPY,[7]; 0.2500 kg/ha,0.0
same,Herbicidal rating CYPIR,CYPIR (Rice Flatsedge); rate 0.0313 kg/ha,0.0
same,Herbicidal rating CYPIR,CYPIR (Rice Flatsedge); rate 0.0625 kg/ha,0.0
same,Herbicidal rating CYPIR,CYPIR (Rice Flatsedge); rate 0.1250 kg/ha,2.0
same,Herbicidal rating CYPIR,CYPIR (Rice Flatsedge); rate 0.2500 kg/ha,4.0
same,Herbicidal rating SAGPY,[8]; rate 0.0313 kg/ha,0.0
same,Herbicidal rating SAGPY,[8]; rate 0.0625 kg/ha,0.0
same,Herbicidal rating SAGPY,[8]; rate 0.1250 kg/ha,0.0
same,Herbicidal rating SAGPY,[8]; rate 0.2500 kg/ha,0.0
